The numbers were not newly measured in patent US4703106A, “Novel polypeptide and process for producing the same” (Mitsubishi Petrochemical Co., Ltd., priority 1984, dated 1987), which cites them from elsewhere.

Positions of bridges follow the written chain, without caps; N, C: chain ends. No end group written: not given here.

The test system of the data set is Ca^2+ concentration in blood. The note with it: published as Japanese Provisional Patent Publication No. 123500/1985.

As for “chicken CT: calcitonin extracted and purified from the ultimobranchial glands of chickens, formula (I) (CASLSTCVLGKLSQELHKLQTYPRTDVGAGTP-NH2; disulfide 1-7; ends not checked; UniProt P07660 82-113, looked up)”, the “biological activity relative to CT's of cyclostomata and fish” value was “equal to or higher than CT's of cyclostomata and fish”.
